Assay results: ChEMBL document CHEMBL5528083, “Discovery of a Novel Thienopyrimidine Compound as a Urate Transporter 1 and Glucose Transporter 9 Dual Inhibitor with Improved Efficacy and Favorable Druggability” (J Med Chem, 2024)

Experiments:
[1] = species on record: Mus musculus; experiment: Reduction in serum uric acid level in acute hyperuricemia state Kunming mouse model assessed as SUA level; type: functional
[2] = molecular target: T1, Solute carrier family 22 member 12 (Homo sapiens, UniProt Q96S37); experiment: Inhibition of human URAT1 expressed in HEK293T cells using 14C- uric acid assessed as uric acid absorption by measuring intracellular liquid radiation value by liquid scintillation counting analysis; type: cell-based
T1 sequence (Q96S37 whole entry): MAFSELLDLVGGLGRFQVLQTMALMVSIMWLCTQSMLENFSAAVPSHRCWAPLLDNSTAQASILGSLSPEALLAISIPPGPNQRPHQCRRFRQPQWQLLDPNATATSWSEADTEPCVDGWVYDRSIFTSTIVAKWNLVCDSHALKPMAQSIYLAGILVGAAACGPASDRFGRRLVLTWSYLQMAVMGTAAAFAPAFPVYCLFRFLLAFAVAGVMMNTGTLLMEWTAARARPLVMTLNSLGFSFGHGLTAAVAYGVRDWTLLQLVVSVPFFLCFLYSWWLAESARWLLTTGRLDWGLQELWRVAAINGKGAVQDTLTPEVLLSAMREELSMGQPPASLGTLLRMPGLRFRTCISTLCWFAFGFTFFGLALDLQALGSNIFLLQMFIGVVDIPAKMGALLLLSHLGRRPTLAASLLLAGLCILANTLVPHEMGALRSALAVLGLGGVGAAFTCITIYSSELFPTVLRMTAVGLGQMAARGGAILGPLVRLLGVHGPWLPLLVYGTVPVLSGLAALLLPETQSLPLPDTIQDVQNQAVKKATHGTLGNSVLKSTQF

[3] = molecular target: T2, Solute carrier family 2, facilitated glucose transporter member 9 (Mus musculus) (UniProt Q3T9X0); experiment: Inhibition of mouse EGFP-tagged GLUT9 expressed in HEK293T cells assessed as inhibition rate by measuring relative current at 5 uM by patch clamp electrophysiological analysis relative to control; type: cell-based; parameters: scale not given: the % may be the effect or the level left
T2 sequence (whole entry): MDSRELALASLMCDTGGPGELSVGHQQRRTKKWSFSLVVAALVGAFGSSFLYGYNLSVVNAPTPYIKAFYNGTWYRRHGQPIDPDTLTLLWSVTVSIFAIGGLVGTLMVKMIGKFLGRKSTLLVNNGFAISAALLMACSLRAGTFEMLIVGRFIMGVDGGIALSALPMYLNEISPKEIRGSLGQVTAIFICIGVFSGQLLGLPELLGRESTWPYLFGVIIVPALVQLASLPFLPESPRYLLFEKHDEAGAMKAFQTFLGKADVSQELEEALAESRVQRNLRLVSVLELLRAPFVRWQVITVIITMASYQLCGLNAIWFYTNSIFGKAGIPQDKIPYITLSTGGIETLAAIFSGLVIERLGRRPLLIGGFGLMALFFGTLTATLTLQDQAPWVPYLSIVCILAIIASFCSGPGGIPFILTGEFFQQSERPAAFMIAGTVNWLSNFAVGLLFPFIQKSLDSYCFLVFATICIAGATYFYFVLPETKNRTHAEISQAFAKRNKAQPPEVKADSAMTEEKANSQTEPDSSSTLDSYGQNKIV

[4] = test system: Mus musculus; experiment: Reduction in serum uric acid level in acute hyperuricemia state Kunming mouse model assessed as SUA level at 1 mg/kg, po (reference value: 1037 +/- 106.59 uM); type: functional
[5] = test system: Mus musculus; experiment: Reduction in serum uric acid level in acute hyperuricemia state Kunming mouse model assessed as SUA level by measuring decrease ratio at 1 mg/kg, po relative to control; type: functional; parameters: scale not given: the % may be the effect or the level left
[6] = test system: Mus musculus; experiment: Reduction in serum uric acid level in acute hyperuricemia state Kunming mouse model assessed as SUA level by measuring decrease ratio at 0.25 mg/kg, po relative to control; type: functional; parameters: scale not given: the % may be the effect or the level left
[7] = test system: Rattus norvegicus; experiment: Reduction in serum uric acid level in po dosed acute hyperuricemia state Sprague-Dawley rat model assessed as SUA level (reference value: 955.20 +/- 85.56 uM); type: functional
[8] = test system: Rattus norvegicus; experiment: Reduction in serum uric acid level in po dosed acute hyperuricemia state Sprague-Dawley rat model assessed as SUA level by measuring decrease ratio relative to control; type: functional; parameters: scale not given: the % may be the effect or the level left
[9] = test system: Rattus norvegicus; experiment: Potency index, ratio of compound to lesinurad for reduction in serum uric acid level in po dosed acute hyperuricemia state Sprague-Dawley rat model assessed as decrease ratio of SUA level; type: functional
[10] = species on record: Mus musculus; experiment: Reduction in serum uric acid level in chronic hyperuricemia state Kunming mouse model assessed as SUA level by measuring decrease ratio relative to control; type: functional; parameters: scale not given: the % may be the effect or the level left
[11] = molecular target: Cytochrome P450 2D6 (Homo sapiens, UniProt P10635); experiment: Inhibition of CYP2D6 in human liver microsomes measured after 40 mins incubation by LC-MS/MS analysis; type: ADME, Microsome
Sequence of Cytochrome P450 2D6 (P10635 whole entry): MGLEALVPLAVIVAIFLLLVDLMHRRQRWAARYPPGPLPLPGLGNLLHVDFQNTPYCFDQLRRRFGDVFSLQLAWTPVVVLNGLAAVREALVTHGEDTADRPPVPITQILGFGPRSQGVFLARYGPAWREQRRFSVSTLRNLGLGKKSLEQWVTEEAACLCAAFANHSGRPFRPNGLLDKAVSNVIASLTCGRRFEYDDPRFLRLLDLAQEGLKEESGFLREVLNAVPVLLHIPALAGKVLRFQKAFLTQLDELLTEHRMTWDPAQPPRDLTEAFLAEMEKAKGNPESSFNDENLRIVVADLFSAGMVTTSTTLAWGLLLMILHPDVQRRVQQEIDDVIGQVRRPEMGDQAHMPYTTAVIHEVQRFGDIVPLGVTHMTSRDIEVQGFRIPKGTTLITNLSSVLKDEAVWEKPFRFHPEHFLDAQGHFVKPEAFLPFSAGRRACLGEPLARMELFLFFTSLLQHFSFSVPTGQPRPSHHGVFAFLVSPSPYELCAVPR

[12] = molecular target: Cytochrome P450 3A4 (Homo sapiens, UniProt P08684); experiment: Inhibition of CYP3A4 in human liver microsomes using midazolam measured after 40 mins incubation by LC-MS/MS analysis; type: ADME, Microsome
Sequence of Cytochrome P450 3A4 (P08684 whole entry): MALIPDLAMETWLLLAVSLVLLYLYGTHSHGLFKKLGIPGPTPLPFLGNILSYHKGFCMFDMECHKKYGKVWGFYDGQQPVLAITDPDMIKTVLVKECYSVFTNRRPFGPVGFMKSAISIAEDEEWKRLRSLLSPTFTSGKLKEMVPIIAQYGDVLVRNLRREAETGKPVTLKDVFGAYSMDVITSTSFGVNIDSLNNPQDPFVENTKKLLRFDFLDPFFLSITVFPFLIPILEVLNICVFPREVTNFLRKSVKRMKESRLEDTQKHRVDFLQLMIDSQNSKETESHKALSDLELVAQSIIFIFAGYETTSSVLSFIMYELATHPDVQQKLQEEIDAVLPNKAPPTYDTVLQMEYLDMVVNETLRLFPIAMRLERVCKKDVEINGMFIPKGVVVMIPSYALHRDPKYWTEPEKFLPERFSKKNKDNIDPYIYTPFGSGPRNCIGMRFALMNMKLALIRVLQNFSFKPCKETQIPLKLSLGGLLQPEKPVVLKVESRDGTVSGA

[13] = AUC (0 to infinity) in Sprague-Dawley rat at 2 mg/kg, po measured upto 24 hrs by LC-MS/MS-AR analysis; type: ADME, organism-based; settings: in vivo
[14] = AUC (0 to t) in Sprague-Dawley rat at 2 mg/kg, iv measured upto 24 hrs by LC-MS/MS-AR analysis; type: ADME, organism-based; settings: in vivo
[15] = Cmax in Sprague-Dawley rat at 2 mg/kg, iv measured upto 24 hrs by LC-MS/MS-AR analysis; type: ADME, organism-based; settings: in vivo
[16] = Clearance in Sprague-Dawley rat at 2 mg/kg, iv measured upto 24 hrs by LC-MS/MS-AR analysis; type: ADME, organism-based; settings: in vivo
[17] = Acute toxicity in Kunming mouse assessed as fatality rate at 1000 mg/kg, po administered as single dose monitored for 7 days; type: organism-based; settings: in vivo, po, 1000 mg/kg, 168 h, time 7 day
[18] = Acute toxicity in Kunming mouse assessed as fatality rate at 500 mg/kg, po administered as single dose monitored for 7 days; type: organism-based; settings: in vivo, po, 500 mg/kg, 168 h, time 7 day
[19] = Subacute toxicity in Kunming mouse assessed as abnormal behavior at 100 mg/kg, po administered every other day for 14 days; type: organism-based; settings: in vivo, 336 h, time 14 day
[20] = Subacute toxicity in Kunming male mouse assessed as change in body weight at 100 mg/kg, po administered every other day for 14 days; type: organism-based; settings: in vivo, 336 h, time 14 day
[21] = Toxicity in Kunming female mouse assessed as coagulation necrosis of hepatocyte at 100 mg/kg, po administered every other day for 14 days by H and E staining based assay; type: organism-based; settings: 336 h, time 14 day
[22] = Toxicity in Kunming female mouse assessed as balloon like degeneration of liver at 100 mg/kg, po administered every other day for 14 days by H and E staining based assay; type: organism-based; settings: in vivo, 336 h, time 14 day

O=C(O)CCCSc1nc(Nc2ccc(C3CC3)c3ccccc23)c2sccc2n1 gave an Activity [1] of 191.6 µM, an IC50 [2] of 2.01 µM and an Activity [3] of 69.7%. The Activity [4] was 208.6 µM, the Activity [5] was 89.08% and the Activity [6] was 9.89%. The Activity [7] was 190.8 µM, the Activity [8] was 90.12% and the Ratio [9] was 1.8. For the same compound, the Activity [10] was 76.33%, the IC50 [11] was greater than 20 µM and the IC50 [12] was greater than 20 µM. It also gave an AUC [13] of 1929.1 ng·h/mL, an AUC(0-t) at 24 h [14] of 1900 ng·h/mL and a Cmax [15] of 6590 ng/mL. The clearance [16] was 17 mL/min/kg, the Activity [17] was “Non-Toxic” and the Activity [18] was “Non-Toxic”. The Activity [19] was “Non-Toxic”, the Activity [20] was “Toxic” and the Activity [21] was “Non-Toxic”. The Activity [22] was “Non-Toxic”.
